From patent publication US9303069B2, “Peptides for treating cancer” (University of Mississippi Medical Center, priority 2014, dated 2016)
Ends that are not written are not given here.

Assays:
SKOV3 cells [1] = type: cell-based, human; settings: 48 h
Protocol: Thus, a peptide (hereafter IRIS peptide) composed of a cell/nucleus penetrating signal (FIG. 26) fused to BRCA1-IRIS intron 11 (FIG. 26) was synthesized. Equal numbers of HOSE, HOSE/IRIS, SKOV3, OVCAR3, OVCAR420 and OV-90 cells were grown in the presence of increasing concentrations of IRIS peptide for 48 hours.
To investigate the contribution of ErbB2 and TrkB to BRCA1-IRIS-induced cisplatin resistance, equal numbers of SKOV3 cells were either depleted from BRCA1-IRIS, ErbB2 or TrkB using specific siRNAs for 48 hours before they were (i) exposed to increasing concentrations of cisplatin for another 24 hours or (ii) exposed to IRIS peptide, ErbB2 inhibitor (CP-724714), TrkB inhibitor (K252a) or both for 24 hours, before they were exposed to increasing concentrations of cisplatin for another 24 hours.
(§1) Cell viability measurement. Cell viability under different experimental conditions was determined using the MTS assay […]. Briefly, SKOV3, OVACAR3, HOSE and HOSE/IRIS cells (2.5×10^4 cells per well) were seeded in 96 well plates and incubated overnight at 37° C. in 10% humidified CO2 atmosphere in varying concentrations of IRIS peptide, or inhibitors of ErbB2 (CP-724714), EGFR (Erlotinib), TrkB (K252a), JNK (SP600125), p38 (SB203580), ERK (PD98059) and PI3′K/AKT (LY294002) inhibitors for 24 hours at 37° C. Cell Titer 96® Aqueous (Promega, Madison, Wis., USA) was used to measure viability following manufactures instructions. Cell viability (%) was expressed as a ratio to control cells×100. Growth inhibition was also determined by manually counting cells in five different microscopic fields. Change in cell numbers (fold) was expressed as a ratio to control cells×100. All experiments were done in at least triplicates, three different times. * is p≦0.05, ** is p≦0.001 and *** is p≦0.0001.
Transfections of siRNA. siRNAs for human ErbB2 and TrkB were purchased from Ambion and Santa Cruz Biotechnology, USA. Custom synthesized siRNA against BRCA1 IRIS was used. siRNA against luciferase gene was used as the negative control. Sub-confluent cells were transfected in 6- or 96-well plates with ErbB2 (100 nM), TrkB (100 nM), BRCA1 IRIS (200 nM) or control siRNA using Oligofectamine™ reagent (GibcoBRL Inc, USA) following the instructions of the manufacturer. Protein expression was tested by Western blot after 72 hours of siRNA transfection. Cell viability was evaluated by MTS or by manual counting after 72 hours of siRNA exposure alone or in combination with cisplatin exposure (for an additional 24 hours).

[2] = tested on: HOSE, HOSE/IRIS, SKOV3, OVCAR3, OVCAR420 and OV-90 cells; assay: Survival of ovarian cell lines after siRNA transfection followed by IRIS peptide; type: cell-based, human; settings: then increasing concentrations of IRIS peptide 24 hours
Protocol: To establish the specificity of this peptide further, it was assumed that it would not affect cells already depleted from BRCA1-IRIS. To do that HOSE, HOSE/IRIS, SKOV3, OVCAR3, OVAC420 and OV-90 cells were first transfected with luciferase (as control, hereafter siLuc) or BRCA1-IRIS (hereafter siIRIS) specific siRNAs for 48 hours before they were exposed to increasing concentrations of IRIS peptide for another 24 hours.
Cell viability measurement. Cell viability under different experimental conditions was determined using the MTS assay or cell. […] Cell viability (%) was expressed as a ratio to control cells×100. Growth inhibition was also determined by manually counting cells in five different microscopic fields. Change in cell numbers (fold) was expressed as a ratio to control cells×100. […]
Transfections of siRNA. siRNAs for human ErbB2 and TrkB were purchased from Ambion and Santa Cruz Biotechnology, USA. […] Cell viability was evaluated by MTS or by manual counting after 72 hours of siRNA exposure alone or in combination with cisplatin exposure (for an additional 24 hours).

HOSE and HOSE/IRIS cells = assay: Survival of HOSE versus HOSE/IRIS cells; type: cell-based, human; settings: pre-treatment with 5 μM of IRIS peptide
Protocol: To test that, HOSE or HOSE/IRIS cells were incubated for 24 hours with 10 μM of ErbB2 (CP-724714), EGFR (Erlotinib), TrkB (K252a), JNK (SP600125), p38 (SB203580), ERK (PD98059) and PI3′K/AKT (LY294002) inhibitors. […] Taken together, BRCA1-IRIS overexpression activates AKT and ERK, thereby inactivating FOXO3a and promoting Cyclin D1, survivin, Bcl-2 and NF-κB expression and suppressing p27 expression (FIG. 15).
HOSE cells overexpressing IRIS show a higher degree of resistance to cisplatin than HOSE cells (compare blue to black line in FIG. 30).
as §1

SKOV3 cells [3] = assay: Three-dimensional (3D) growth / acini formation in matrigel, SKOV3; type: cell-based, human
[4] = tested on: AKT, p-AKT, p-FOXO and FOXO3a; assay: Signalling proteins in MDA-MB-231 and MDA-MB-468 cells (Western); type: cell-based, human
Source text: This was completely in line with decreased MDM2 and Skp2 (the ubiquitin ligases responsible for p-FOXO degradation) expression in BRCA1-IRIS silenced and BRCA1-IRIS and AKT inactivated cells (FIG. 87).

MDA-MB-468 tumors = assay: In vivo efficacy on established MDA-MB-468 tumors; parameters: species or system mice; settings: day 12; IRIS peptide 10 mg/kg i.t.; combination at half the concentrations
Protocol: Nude 6-8 weeks female mice were injected with 2×10^6 of MDA-MB-468 cells in the 2nd left and 4th right mammary fat pads. When all tumors reached ˜0.1 cm^3 in volume, mice were divided into four groups, one received vehicles (i.e. DMSO injected intraperitoneally [i.p.] and scrambled peptide injected directly into tumors [i.t.]), another received paclitaxel (10 mg/kg, i.p.), the third received IRIS peptide at (10 mg/kg, i.t.), and the last received paclitaxel and IRIS peptide at half the concentrations, injected as above. Drugs were delivered every third day for total of four injections.
In Vivo efficacy of BRCA1-IRIS-inhibitory peptide. Six to eight week old female athymic SCID mice were injected in the second right and the fourth left mammary gland with 2.5×10^6 of MDAMB468 cells. Tumor growth was followed daily until tumors reached 100 mm^3. At this time mice were randomly grouped into four different groups that were injected: a) with DMSO (i.p.) and scrambled peptide (10 mg/kg) intra-tumoral (i.t.), b) injected with IRIS peptide (10 mg/kg, i.t.), c) injected with paclitaxel (10 mg/kg, i.p.), d) injected with IRIS peptide (5 mg/kg, i.t.), and paclitaxel (5 mg/kg, i.p.). […] Change in tumor volume was measured to monitor the efficacy of the treatments using caliper and is represented as percentage of volume at day 0 of treatment. […]

Question: Which results are given for “RRIRPRPPRLPRPRPRPLPFPRPGIGTRFLCLPQSIYRSELNVYAFGEHILQISKYS [IRIS peptide]”?
Answer: IC50 (SKOV3 cells [1]): ~10 µM; effect of IRIS peptide on survival of BRCA1-IRIS silenced cells ([2]; siIRIS 48 hours): not affected by the peptide at any of the concentrations tested; effect of IRIS peptide on survival of siLuc-transfected cells ([2]; siLuc 48 hours): gradual decrease in the survival of all cell lines; effect on survival (HOSE and HOSE/IRIS cells): decreased survival of HOSE and HOSE/IRIS cells; sensitization to cisplatin (HOSE and HOSE/IRIS cells; then cisplatin): sensitized HOSE and HOSE/IRIS cells to low concentrations of cisplatin; decrease in ability to form invasive structures in matrigel (SKOV3 cells [3]; SKOV3 cells): > 500 fold; acini phenotype (SKOV3 cells [3]; SKOV3 in matrigel, day 10, peptide added every third day): slightly bigger/organized/round acini; total and activated AKT (p-AKT) levels ([4]; 5 μM IRIS peptide or 10 μM LY294002, 24 hours): decreased the levels of total and activated AKT (p-AKT) in both cell lines; p-FOXO and FOXO3a levels ([4]; 5 μM IRIS peptide, 10 μM LY294002 or 10 μM PD98059, 24 hours): decreased p-FOXO level and increased the levels of FOXO3a in both cell lines; tumor size as % of original size (at day 0) (MDA-MB-468 tumors): ~75%
